Data set [1] relates to Ht-29 cells. Kind of data set: Resazurin reduction viability assay. The class given is cell-based, human. The note with it: Ht-29, 1, 5, and 25 µM, 48 h, n = 3. For orientation: The colour change of resazurin is a common sign of viable cells or microbes.
Data set [2] has as its system HeLa S-3 cells. Kind of data set: Resazurin reduction viability assay. The note with it: HeLa, 1, 5, and 25 µM, 48 h, n = 3.
Experimental: For the resazurin-to-resorufin reduction assays, cells were grown in a 96-well plate for 120 min at 37 °C with resazurin solution (0.15 mg/ml) (Sigma-Aldrich, Milan, Italy). The fluorescence of resorufin was quantified on a PerkinElmer EnSpire 2,300 Multilabel Reader (ex 550 nm/em 590 nm). For the Apo-ONE assay, 25,000 cells were seeded in a 96-well white polystyrene microplate (Corning, United States of America). After 24 h, cells were treated for 36 h with oxaliplatin and oxaliplatin+SS35. Cells were then lysed and subjected to caspase-3/7 (DEVDase) activity assays by using the Apo-ONE Homogeneous Caspase-3/7 Assay (Promega, Madison, United States of America) according to the manufacturer’s instructions. After 30 min of incubation, fluorescence was recorded in the linear phase of the kinetics with a Synergy H1 plate reader (BioTek, Winooski, United States of America). For the trypan blue viability assay, cells were harvested, pelleted at 1500 rcf, and incubated for 5 min with a PBS/0.4% Trypan Blue solution (Gibco). At least 300 cells were counted for each condition.
First, Ht-29 and HeLa cells were treated with increasing doses (0.02, 0.04, and 0.06 μg/ml) of SS28, SS35, and SS36 for 48 h, and cell viability was assessed by resazurin reduction assays (Figure 6A). […]
A short description of data set [3]: Determination of PMO peptide functionalization by absorbance. It is filed as physicochemical. The conditions noted are these: UV absorbance in ethanol, Phe (257 nm) and Fmoc-Ala (267 nm) calibration curves, PMO baseline subtracted; estimated. As for the experimental part: To quantify the amounts of peptides on the PMO, a Varian Cary 50 bio benchtop spectrophotometer in the range of 200–800 nm with a 1-nm step was used ([Faura et al. 2021]). The calibration curves were determined by preparing five solutions at known concentrations of Phenylalanine and Fmoc-Alanine used as standards. Briefly, a stock solution of 5 mM Phe in absolute ethanol was diluted to the final concentrations of 0.2 mM, 0.5 mM, […], 2 mM, and 5 mM. A standard solution of 52.7 μM Fmoc-Alanine (Ala) in absolute ethanol was diluted to the concentrations of 20 μM, 10 μM, 5 μM, and 2 μM. The fluorescence signals were recorded for Phenylalanine (Phe: λex 240 nm and λem 282 nm) ([Lakowicz, 2006]) and Fmoc-Ala (λex […] and λem 280 nm) ([Pappas et al., 2014]) and plotted against their respective sample concentrations. […]
The absorbance values of peptides linked to PMOs were adjusted to account for potential interference caused by PMOs, which can scatter or absorb light in the visible and UV ranges, leading to inaccuracies in absorbance measurements of chromophores. The absorbance spectrum of PMO was subtracted from the absorbance spectrum of the sample containing the peptide@PMO. In the region of absorption of the chromophore, we observed a linear and well-defined relationship between the absorbance of PMO and wavelength. […]

With `N=C(N)NCCC[C@@H]1NC(=O)[C@H](CCCCN)NC(=O)[C@@H](Cc2ccccc2)NC(=O)[C@H](CC(=O)O)NC(=O)CNC1=O` [p28, cyclic[RGDfK]], the “cytotoxicity of free peptide compared with nanoparticle-conjugated peptide” value in data set [1] and in data set [2] was “significantly attenuated” throughout.

Turning to “FmocAVPI@PMO [Fmoc-protected AVPI peptide conjugated to PMO, apparently the precursor of SS36]”, in data set [3], the “Peptide/PMO: peptide amount binding for each milligram of PMO” value is 0.074 mg.
